# Key:
# [1] = test system: PC3 cells co-cultured with NK92 cells; assay: PC3/NK92 co-culture: Western blot of LC3II and cleaved PARP; assay type: cell-based, human; conditions: 300 uM with 10 μg/ml anti-PD-L1
# Description: In addition, the expression of LC3II, which is an autophagy marker, and the expression of cleaved PARP, which is a cell death marker, were determined by a Western blot test. 1×10^6 PC3 cells were seeded in 6 wells and stabilized by culturing overnight, and the PC3 cells were treated with 10 μg/ml of the anti-PD-L1 and 300 uM of the peptide of Example 1 for each condition while the same number of NK92 cells were additionally seeded. After a predetermined period of treatment, the NK92 cells were removed by washing, and proteins were isolated from the tumor cells to determine LC3II (12 h) and PARP (24 h) expression changes. The expression amounts of each marker were calculated as proportions relative to the control. FIG. 13 is a graph showing the amount of cleaved PARP expression compared to PARP for each test group in the anticancer effect evaluation test in which the x-axis represents test groups and the y-axis represents the amount (%) of cleaved PARP expression compared to the PARP. FIG. 14 is a graph showing the amount of LC3II expression compared to actin for each test group in an anticancer effect evaluation test, in which the x-axis represents test groups, and the y-axis represents the amount (%) of LC3II expression compared to actin in the test group.
# [2] = 4-week repeated subcutaneous toxicity test in rats; assay type: in vivo, rat
# Description: Ten female and male rats were administered the pentapeptide of Example 1 subcutaneously at doses of 500, 1000, 2000 mg/kg daily for 4 weeks to investigate toxicity, and a safety evaluation test was performed. Specifically, general symptom observation, body weight measurement, feed consumption measurement, ophthalmological examination, and urinary examination were performed. After the end of the observation period, hematology and clinical biochemistry test, organ weight measurement, visual examination at autopsy, and histopathological examination were performed. […] Synthesizing the results described above, the no observed adverse effect level (NOEAL) for female and male was determined to be greater than or equal to 2,000 mg/kg/day when the pentapeptide of Example 1 was administered repeatedly subcutaneously to the rats for 4 weeks.
# [3] = test system: PC3; assay: PC3 cell viability (CCK-8) in NK92 co-culture with anti-PD-L1; assay type: cell-based, human; conditions: 300 uM with 10 ug/ml anti-PD-L1, 24/48/72 hours of co-culturing
# Description: (§1) The experiment described below was performed to evaluate the tumor cell proliferation inhibitory effect of the combination treatment of the peptide of Example 1 and the anti-PD-L1, which is an immune checkpoint inhibitor. First, 5×10^3 cells of a human prostate cancer cell line PC3, 5×10^3 cells of a human lung cancer cell line A549 (Korean Cell Line Bank), and 1×10^4 cells of a human triple negative breast cancer cell line MDA-MB-231 (ATCC) were seeded in 96 wells and stabilized by culturing overnight. Then, the seeded cells were treated with 10 ug/ml of the anti-PD-L1 and 300 uM of the peptide of Example 1, for each condition while NK92 cells for 5×10^3 cells of each of the PC3 cell line and the MDA-MB-231 cell line and 2.5×10^3 cells of the A549 cell line were additionally seeded. After 24/48/72 hours of co-culturing (for PC3 and MDA-MB-231) and 24/48 hours of co-culturing (for A549), the NK92 cells were removed by washing, and the cancer cell viability was measured by CCK-8 addition. FIG. 15 is a graph illustrating the changes in PC3 cell viability over culturing time for each test group in an anticancer effect evaluation test. In FIG. 15, the x-axis represents culturing time and the y-axis represents cell viability (%). FIG. 16 is a graph illustrating the changes in A549 cell viability over culturing time for each test group in an anticancer effect evaluation test. […]
# [4] = 4-week repeated subcutaneous toxicity and toxicokinetic test in beagle dogs; assay type: in vivo, beagle dog
# Description: In addition, 3 female and male beagle dogs were used per group to repeatedly subcutaneously administer the pentapeptide of Example 1 at doses of 40, 120, 400 mg/kg for 4 weeks daily. During the test period, general symptom observation, weight and feed intake measurements, ophthalmological examination, electrocardiogram, urinalysis, hematology and clinical biochemistry test, and toxicokinetic examination were performed. In addition, organ weight measurements, visual inspection, and histopathological examination of autopsy subjects were performed. […] Thus, the NOAEL (No Observed Adverse Effect Level) of the pentapeptide of Example 1 for female and male beagle dogs under the presented test conditions is determined to be 400 mg/kg/day.
# [5] = test system: MDA-MB-231; assay: MDA-MB-231 cell viability (CCK-8) in NK92 co-culture with anti-PD-L1; assay type: cell-based, human; conditions: 300 uM with 10 ug/ml anti-PD-L1, 24/48/72 hours of co-culturing
# Description: as §1
# [6] = test system: MDA-MB-231; assay: MDA-MB-231 xenograft in BalB/c nude mouse: survival rate; assay type: in vivo; conditions: 100 mg/kg subcutaneously 3 times weekly, co-administered with paclitaxel 20 mg/kg once weekly
# Description: To investigate survival rates of the paclitaxel-only administration group and the group co-administered with paclitaxel and the peptide of Example 1, experiments described below were performed. 5×10^6 cells/head of the human triple negative breast cancer cell line MDA-MB-231 were mixed with Matrigel and PBS (1:1). 100 ul of the mixture was injected into the right third fat pad of 7-week-old female BalB/c nude mouse. After the transplantation, drug administration started from an average tumor size of 70 mm^3. Paclitaxel 20 mg/kg was administered once weekly, and the peptide 100 mg/kg of Example 1 was administered subcutaneously 3 times weekly at 48-hour intervals, 48 hours after the paclitaxel administration. Each test group was administered for 12 weeks and animal survival was observed daily. FIG. 10 is a graph illustrating survival rates over time after sample administration in animal experimentation. In FIG. 10, the x-axis represents the elapsed time (days) after administration and the y-axis represents survival rates (%). […] In the case of the group co-administered with the peptide of Example 1, the first deceased mouse occurred on Day 60 of administration.
# [7] = 500, 1000, 2000 mg/kg subcutaneous daily for 4 weeks
# [8] = 40, 120, 400 mg/kg subcutaneous daily for 4 weeks
substance,measurement,setting,value
"Ac-QLHLD-OH [Example 1, acetyl-QLHLD]",LC3II expression compared to the group treated with only anti-PD-L1,"[1]; 12 h, P<0.001",significantly decreased
same,Cleaved PARP expression compared to the group treated with only anti-PD-L1,"[1]; 24 h, P<0.05",significantly increased
same,Adverse findings related to the pentapeptide,[2]; [7],no adverse findings
same,Deaths,[2]; [7],no deaths occurred
same,No observed adverse effect level (NOEAL),"[2]; female and male, subcutaneous, daily for 4 weeks","greater than or equal to 2,000 mg/kg/day"
same,Cancer cell viability compared to the group treated with only anti-PD-L1,[3],significant decrease in cancer cell viability
same,"Abnormalities (body weight, feed intake, ophthalmic examination, electrocardiogram, urinalysis, hematology, clinical biochemistry, necropsy, organ weight)",[4]; [8],No abnormalities
same,Deaths,[4]; [8],no deaths were observed
same,"Systemic exposure (AUClast, Cmax), dose dependence","[4]; Day 1 and Day 28, 40, 120, 400 mg/kg",approximately proportionally increased with increase in the dose
same,Accumulation,[4]; Day 1 vs Day 28,no pentapeptide accumulation
same,NOAEL at 4 weeks,"[4]; both sexes, dog, in vivo, sc, female and male, subcutaneous, daily for 4 weeks, read-out: NOAEL (No Observed Adverse Effect Level)",400 mg/kg/day
same,Cancer cell viability compared to the group treated with only anti-PD-L1,[5],significant decrease in cancer cell viability
same,Day of administration on which the first deceased mouse occurred,[6],60 days

# Reference: US20250059232A1, “PENTAPEPTIDE AND USE THEREOF” (ENSOL BIOSCIENCES INC., priority 2021, published 2025)
